Measured values from patent US20080318255A1, “Fluorescent Labeled Sphingosines” (priority 2003, published 2008).

Columns and labels:
human SPHK-1 = molecular target: T1, human SPHK-1 (Homo sapiens, UniProt Q9NYA1); test: Phosphorylation of fluorescent labeled sphingosines by SPHK-1 ([γ-32P]ATP, TLC); format: biochemical; details: for rate of phosphorylation (phosphate conversion rate) relative to sphingosine (=1), SPHK-1: 20 μM substrate, cytoplasmic fraction of HEK-293 cells overexpressing human SPHK-1; for times (fold) less efficiently converted to the phosphate than SP, SPHK-1: compared to sphingosine (SP); for reduction of phosphorylation efficiency (factor), SPHK-1: compared to compound of example 4
T1 construct: expressed in transfected cells; host or cells: HEK-293 (cytoplasmic fraction)
Protocol: (§1) The phosphorylation reactions are performed essentially as follows. The cytoplasmic fraction of recombinant HEK-293 cells overexpressing human SPHK-1 or -2 is incubated at 30° in total volumes of 100 μl with SP derivatives (20 μM; added from stock solutions in DMSO), 1 mM of ATP, and 2 μCi [γ-^32P]ATP in 50 mM Hepes buffer (pH 7.4) containing 15 mM MgCl2, 0.005% Triton X-100, 10 mM KCl , 10 mM NaF and 1.5 mM semicarbazide. Following incubations for different time points up to 2 hours, lipids are extracted and separated by TLC-plates (Merck). TLC is performed on silica plates, using either BuOH/acetic acid/H2O 3:1:1 or CHCl3/MeOH/H2O/NH4OH (28^w/w%) 200:150:29:1 as the mobile phase. In these systems sphingosine and the compound of Example 4 co-migrate. Identity of the metabolites with pyrene-labeled SPP and sphingomyelin (SM) is established by co-migration with commercially available tritium-labeled SPP and SM as standards.
(§2) Radiolabeled SPP derivatives are visualized and quantified using a Molecular Dynamics Storm Phosphorlmager (Sunnyvale, Calif.). The rate of phosphorylation is calculated and is reported for the fluorescent labeled sphingosines as value relative to the rate for sphingosine (for which the rate is 41 and 25 nmol/min/mg with SPHK-1 and -2, respectively).
(§3) The fluorescently labeled sphingosines of examples 1-7 are used as substrates for human recombinant SPHK-1 and SPHK-2 and all of them are converted to phosphorylated derivatives as visualized by the incorporation of radiolabeled phosphate upon incubation with [γ-32P]ATP and the kinases. The rates of phosphorylation (phosphate conversion rate) are determined and summarized in Table A relative to the natural substrate sphingosine (=SP), which has the assumed value of 1.

human SPHK-2 = molecular target: T2, human SPHK-2 (Homo sapiens, UniProt Q9NRA0); test: Phosphorylation of fluorescent labeled sphingosines by SPHK-2 ([γ-32P]ATP, TLC); format: biochemical; details: for rate of phosphorylation (phosphate conversion rate) relative to sphingosine (=1), SPHK-2: 20 μM substrate, cytoplasmic fraction of HEK-293 cells overexpressing human SPHK-2
T2 construct: expressed in transfected cells; host or cells: HEK-293 (cytoplasmic fraction)
T2 sequence (Q9NRA0 1-654): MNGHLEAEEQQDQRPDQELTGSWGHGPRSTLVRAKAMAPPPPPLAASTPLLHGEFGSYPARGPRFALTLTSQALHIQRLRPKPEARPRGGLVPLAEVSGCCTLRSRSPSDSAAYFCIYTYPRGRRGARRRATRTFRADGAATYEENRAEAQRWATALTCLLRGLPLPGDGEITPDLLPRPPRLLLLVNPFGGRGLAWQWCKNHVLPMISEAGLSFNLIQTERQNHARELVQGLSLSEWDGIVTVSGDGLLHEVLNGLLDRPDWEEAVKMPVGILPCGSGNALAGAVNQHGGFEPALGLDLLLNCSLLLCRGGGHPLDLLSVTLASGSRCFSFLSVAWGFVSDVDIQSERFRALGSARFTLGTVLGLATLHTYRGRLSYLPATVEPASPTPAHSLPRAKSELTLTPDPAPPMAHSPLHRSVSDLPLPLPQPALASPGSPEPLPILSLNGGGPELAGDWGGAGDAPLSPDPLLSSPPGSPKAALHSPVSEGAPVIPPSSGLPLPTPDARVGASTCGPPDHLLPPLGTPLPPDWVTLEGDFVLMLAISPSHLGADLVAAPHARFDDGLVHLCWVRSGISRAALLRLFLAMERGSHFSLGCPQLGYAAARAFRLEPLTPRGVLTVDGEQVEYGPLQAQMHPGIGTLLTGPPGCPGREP
Protocol: as §1, §2, §3

[1] = test system: human endothelial cells (HUVEC); test: Uptake, subcellular distribution and metabolism of fluorescent labeled sphingosines in human endothelial cells; format: cell-based
Excerpt: To examine the uptake, subcellular distribution and metabolism (conversion to the phosphate) in human endothelial cells (HUVEC), the pyrene labeled sphingosine of example 4 is used. […] Furthermore, the compound is converted intracellularly into 4 products as shown by thin-layer chromatography.

sphingosine kinase = test: Fluorimetric assay of sphingosine kinase activity; format: biochemical
Excerpt: We have determined that sphingosine kinase in the presence of ATP phosphorylates a compound COMPA (compound of Example 23), which is a fluorescent labeled sphingosine, to obtain a corresponding phosphorylated compound COMPA-P (compound of Example 24) according to the Reaction SCHEME 4 as set out below.
wherein residues are as defined above and R3 is H. such as phosphorylation of a compound of Example […] by a sphingosine kinase to obtain a compound of Example […] in the presence of ATP. COMPA and COMPB are separated by liquid-liquid extraction. Fluorescence as a measure of enzyme activity of a compound of formula COMPA-P in the aqueous phase is quantified. In detail:
Sphingosine kinase is incubated in total volumes of 100 μl with a compound of formula COMPA (20 μM, added from stock solutions in DMSO) and ATP (1 mM) in 50 mM Hepes buffer, pH 7.4, containing 15 mM MgCl2, 0.005% Triton X-100, 10 mM KCl for 30 minutes at 30° and to the mixture obtained 100 μl 1 M potassium phosphate buffer, pH 8.5, followed by 250 μl CHCl3/MeOH 2:1 are added. […]
Fluorescence intensity is measured in a plate reader with excitation at 485 nm and emission at 538 nm. […] From the fluorescence intensity, concentrations of a compound of formula COMPA-P are calculated using appropriate calibration curves in the same solvent system. […]

[2] = test system: HUVEC overexpressing SPHK-1 or SPHK-2; test: Sphingolipid turnover of labeled sphingosines in HUVEC transiently transfected with SPHK-1 and SPHK-2; format: cell-based, human; details: FIG. 3, transfected cells, TLC
Protocol: HUVEC as described in Test Example 4 are seeded in 6-well plates at 50% confluency and grown overnight. Grown cells obtained are transfected using Lipofectamine Plus reagent with an empty vector (GFP-vector from Clontech) alone and GFP-tagged expression constructs coding for SPHK-1 and SPHK-2. Transfection is carried out for 20 hours. To the transfected cells obtained a labeled compound of formula I wherein X is (HO)2PO is added at 2 μM and incubated for 0.5 hours, 1 hour and 3 hours, respectively. Lipids are extracted and the extraction residue obtained is subjected to TLC using BuOH/AcOH/H2O 3:1:1 as a solvent system. TLC plates obtained are scanned using CCD camera and density of the lipid products obtained is measured using AlphaImage 2200 (see FIG. 3).

T1 sequence (Q9NYA1 whole entry): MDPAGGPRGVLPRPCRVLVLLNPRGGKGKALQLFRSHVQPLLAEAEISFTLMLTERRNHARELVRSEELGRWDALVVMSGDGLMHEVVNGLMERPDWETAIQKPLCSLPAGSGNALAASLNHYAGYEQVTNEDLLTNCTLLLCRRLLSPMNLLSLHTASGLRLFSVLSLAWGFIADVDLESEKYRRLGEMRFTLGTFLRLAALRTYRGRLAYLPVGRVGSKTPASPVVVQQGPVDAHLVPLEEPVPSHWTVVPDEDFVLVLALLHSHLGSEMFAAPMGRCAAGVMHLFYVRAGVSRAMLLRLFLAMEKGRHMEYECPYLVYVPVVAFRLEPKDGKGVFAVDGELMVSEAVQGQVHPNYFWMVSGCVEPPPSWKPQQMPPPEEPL

N[C@@H](CO)[C@H](O)/C=C/CCCCCCCCCCOC(=O)c1cc2ccc3cccc4ccc(c1)c2c34 [Example 4]
phosphorylation by SPHK-1 (in words) (human SPHK-1): almost equal phosphorylation by SPHK-1 relative to natural SP
rate of phosphorylation (phosphate conversion rate) relative to sphingosine (=1), SPHK-1 (human SPHK-1; 1 mM ATP, 30°): 0.83
degradation of the ester functionality (human SPHK-1; short term in vitro phosphorylation experiments): no degradation is observed
rate of phosphorylation (phosphate conversion rate) relative to sphingosine (=1), SPHK-2 (human SPHK-2; 1 mM ATP, 30°): 1.25
time to incorporation into the cells after addition [1]: ≤ 5 min
subcellular distribution ([1]; after 15-30 minutes of incubation): predominantly distribution to the endoplasmic reticulum and to the Golgi apparatus
major metabolite ([1]; thin-layer chromatography): co-migrates with sphingosine-1-phosphate (SPP)
number of products formed intracellularly ([1]; thin-layer chromatography): 4

N[C@H](COCCCCCCCCCCCNc1ccc([N+](=O)[O-])c2nonc12)COP(=O)(O)O [Example 23, Phosphoric acid mono-{(R)-2-amino-3-[11-(7-nitro-benzo[1,2,5]oxadiazol-4-ylamino)-undecyloxy]-propyl}ester]
phosphorylation by sphingosine kinase in the presence of ATP (sphingosine kinase): phosphorylates

N[C@@H](CO)[C@H](O)/C=C/CCCOC(=O)CCCCCc1cc2ccc3cccc4ccc(c1)c2c34 [Example 2]
rate of phosphorylation (phosphate conversion rate) relative to sphingosine (=1), SPHK-1 (human SPHK-1; 1 mM ATP, 30°): 0.078
improvement of phosphorylation rate by a factor, SPHK-1 (human SPHK-1; compared to example 1): 2
rate of phosphorylation (phosphate conversion rate) relative to sphingosine (=1), SPHK-2 (human SPHK-2; 1 mM ATP, 30°): 0.83

N[C@@H](CO)[C@H](O)/C=C/CCCOC(=O)CCCCCCCCCc1cc2ccc3cccc4ccc(c1)c2c34 [Example 3]
rate of phosphorylation (phosphate conversion rate) relative to sphingosine (=1), SPHK-1 (human SPHK-1; 1 mM ATP, 30°): 0.024
times (fold) less efficiently converted to the phosphate than SP, SPHK-1 (human SPHK-1): about 40
rate of phosphorylation (phosphate conversion rate) relative to sphingosine (=1), SPHK-2 (human SPHK-2; 1 mM ATP, 30°): 0.065

CCCCCCCCCCCCC/C=C/[C@@H](O)[C@@H](N)CO [sphingosine]
rate of phosphorylation with SPHK-1 (human SPHK-1; 20 μM, 1 mM ATP, 30°): 41 nmol/min/mg
rate of phosphorylation with SPHK-2 (human SPHK-2; 20 μM, 1 mM ATP, 30°): 25 nmol/min/mg

N[C@@H](CO)[C@H](O)/C=C/CCCCCCCCCCNc1ccc([N+](=O)[O-])c2nonc12 [Example 24]
phosphorylation in cells overexpressing SPHK-1 versus SPHK-2 [2]: phosphorylated more efficient by SPHK-2 than by SPHK-1

N[C@@H](CO)[C@H](O)/C=C/CCCOC(=O)CCCc1cc2ccc3cccc4ccc(c1)c2c34 [Example 1]
rate of phosphorylation (phosphate conversion rate) relative to sphingosine (=1), SPHK-1 (human SPHK-1; 1 mM ATP, 30°): 0.048
times (fold) less efficiently converted to the phosphate than SP, SPHK-1 (human SPHK-1): about 20
rate of phosphorylation (phosphate conversion rate) relative to sphingosine (=1), SPHK-2 (human SPHK-2; 1 mM ATP, 30°): 0.14

CN(C)c1cccc2c(S(=O)(=O)NCCCCCCCCCC/C=C/[C@@H](O)[C@@H](N)CO)cccc12 [Example 7]
rate of phosphorylation (phosphate conversion rate) relative to sphingosine (=1), SPHK-1 (human SPHK-1; 1 mM ATP, 30°): 0.063
rate of phosphorylation (phosphate conversion rate) relative to sphingosine (=1), SPHK-2 (human SPHK-2; 1 mM ATP, 30°): 0.026

N[C@@H](CO)[C@H](O)/C=C/CCCCCCCCCCNS(=O)(=O)c1cc2ccc3cccc4ccc(c1)c2c34 [Example 6]
rate of phosphorylation (phosphate conversion rate) relative to sphingosine (=1), SPHK-1 (human SPHK-1; 1 mM ATP, 30°): 0.051
reduction of phosphorylation efficiency (factor), SPHK-1 (human SPHK-1): about 20
phosphorylation by SPHK-2 (in words) (human SPHK-2): almost as efficiently as SP
rate of phosphorylation (phosphate conversion rate) relative to sphingosine (=1), SPHK-2 (human SPHK-2; 1 mM ATP, 30°): 0.83

N[C@@H](CO)[C@H](O)/C=C/CCCCCCCCCCNC(=O)c1cc2ccc3cccc4ccc(c1)c2c34 [Example 5]
rate of phosphorylation (phosphate conversion rate) relative to sphingosine (=1), SPHK-1 (human SPHK-1; 1 mM ATP, 30°): 0.28
reduction of phosphorylation efficiency (factor), SPHK-1 (human SPHK-1): 2
rate of phosphorylation (phosphate conversion rate) relative to sphingosine (=1), SPHK-2 (human SPHK-2; 1 mM ATP, 30°): 0.59
reduction of phosphorylation efficiency (factor), SPHK-2 (human SPHK-2; compared to compound of example 4): 3
